Results as given in PubChem BioAssay AID1996.
Converted amounts (≈) assume the structure as drawn.

Conditions: buffer; pH 7.4; 200.0 µM

| Structure (SMILES) | solubility kinetic |
| --- | --- |
| O=C(NC12CC3CC(CC(C3)C1)C2)c1ccc(N2CCNCC2)c([N+](=O)[O-])c1 | 40.8 µg/mL (≈ 106 µM) |
| O=C(CCc1ccccc1)OCC(=O)c1cccc([N+](=O)[O-])c1 | > 47 µg/mL |
| Cc1cccc(OCC(=O)NCCCNC(=O)c2cccnc2)c1 | > 49.1 µg/mL |
| O=C(OCCCN1CCOCC1)c1ccc(O)c(O)c1 | > 42.2 µg/mL |
| Cc1ccc2c(c1)=C(c1ccccc1)N(O)CC(=O)N=2 | > 39.9 µg/mL |
| COc1ccc(CNC/C=C/c2ccccc2)cc1.Cl | > 43.5 µg/mL |
| CC(=O)Nc1ccc(NC(=O)c2cc[n+]([O-])cc2)cc1 | > 40.7 µg/mL |
| CC(C)(C)c1ccc(C(=O)NCCN2CCOCC2)cc1 | > 43.6 µg/mL |
| Cc1cnc(NC(=O)CSCc2c(C)noc2C)s1 | 19.6 µg/mL (≈ 65.9 µM) |
| COc1ccc(CCNC(=O)C2CCCN(c3ncccn3)C2)cc1 (stereo not given) | 49 µg/mL (≈ 144 µM) |
| Cn1c(=O)c(C(=O)c2ccccc2)c(O)c2ccccc21 | 38.8 µg/mL (≈ 139 µM) |
| CCOc1ccccc1NC(=S)NCc1ccccc1 | 38.8 µg/mL (≈ 135 µM) |
| O=C(Nc1ccccc1O)c1ccc(NC(=O)C2CC2)cc1 | 1.9 µg/mL (≈ 6.41 µM) |
| O=C(Nc1cccc([N+](=O)[O-])c1)C1COc2ccccc2O1 (stereo not given) | 5.4 µg/mL (≈ 18 µM) |
| CC(=O)c1c(C)[nH]c(C(=O)Nc2ccccc2Cl)c1C | 2.7 µg/mL (≈ 9.29 µM) |
| CN(C(=O)NC1CCCCC1)c1ccccc1 | > 34.8 µg/mL |
| Cc1cc(NC(=O)C(=O)c2cn(C)c3ccccc23)no1 | 0.6 µg/mL (≈ 2.12 µM) |
| COc1cc(C(=O)Nc2nc(C)cc(C)n2)cc(OC)c1OC | 45.4 µg/mL (≈ 143 µM) |
| C=CCNC(=S)Nc1ccc(N(C)C)cc1 | > 35.3 µg/mL |
| COc1cc(OC)cc(C(=O)N[C@H](C(=O)NCc2ccco2)C(C)C)c1 | 45.3 µg/mL (≈ 126 µM) |

| Structure (SMILES) | solubility kinetic |
| --- | --- |
| COC(OC)c1ccnc(-c2ccc(OC(=O)c3ccccc3)cc2)n1 | < 0.4 µg/mL |
| CCn1c(=O)c([N+](=O)[O-])c(NCCCn2ccnc2)c2ccccc21 | > 51.2 µg/mL |
| CN(C)c1cccc(C(=O)NCc2ccccc2)c1 | > 38.1 µg/mL |
| Cc1cc(SCC(=O)c2ccccc2)nc(=O)[nH]1 | 16.7 µg/mL (≈ 64.2 µM) |
| CC(C)N1C(=O)N(c2cccc(Cl)c2)C(C)(O)CC1(C)C (stereo not given) | > 46.6 µg/mL |
| CCOc1ccc(S(=O)(=O)N2CC(=O)Nc3ccccc32)cc1 | 10.7 µg/mL (≈ 32.2 µM) |
| Cc1cc(SCc2cccc(Cl)c2)nc(=O)[nH]1 | 39.9 µg/mL (≈ 150 µM) |
| CCCCc1nnc(NC(=O)COC)s1 | > 34.4 µg/mL |
| CN(CCc1ccccc1)c1ccc([N+](=O)[O-])cn1 | 9.6 µg/mL (≈ 37.3 µM) |
| CC(NC(=O)C1CC1)C(c1cccs1)N1CCOCC1 (stereo not given) | > 44.2 µg/mL |
| S=C(NCc1ccco1)N1CCN(c2ccccn2)CC1 | 42.5 µg/mL (≈ 141 µM) |
| O=C(Nc1ccc(Cl)c(S(=O)(=O)N2CCOCC2)c1)c1ccncc1 | > 57.3 µg/mL |
| COc1ccccc1CC(=O)NCCc1ccccc1 | > 40.4 µg/mL |
| O=C(CN1CCCC1)NN=C(c1ccccc1)c1ccccc1 | > 46.1 µg/mL |
| COc1cccc(NC(=O)c2cc3ccccc3cc2OC)c1 | 2.8 µg/mL (≈ 9.11 µM) |
| COc1cccc(OC)c1C(=O)NC(=S)NCc1cccnc1 | 11.3 µg/mL (≈ 34.1 µM) |
| Cn1c(NN)nc2ccccc2c1=O | > 28.5 µg/mL |
| CCC(C)NC(=O)c1cc(-c2cccs2)nc2ccccc12 (stereo not given) | 2.4 µg/mL (≈ 7.73 µM) |
| O=C1CC(N2CCc3ccccc32)C(=O)N1c1ccccc1 (stereo not given) | 37.3 µg/mL (≈ 128 µM) |
| N#Cc1cn(N2CCCCC2)c(=O)[nH]c1=O | > 33 µg/mL |

| Structure (SMILES) | solubility kinetic |
| --- | --- |
| COc1ccc(CNC(=O)CSc2nc3ccc(OC)cc3[nH]2)cc1 | > 53.6 µg/mL |
| Cc1ccc(NC(=O)C2C3CCCCC32)cc1[N+](=O)[O-] (stereo not given) | 0.5 µg/mL (≈ 1.82 µM) |
| Cc1cc(NC(=O)CSc2ccnc(=O)[nH]2)no1 | > 39.9 µg/mL |
| N#C/C(=C\c1ccco1)C(=O)Nc1ccc(S(N)(=O)=O)cc1 | 3.5 µg/mL (≈ 11 µM) |
| Cc1cc(C(=O)OCC(=O)NCc2ccccc2)c(C)o1 | > 43.1 µg/mL |
| COC(=O)c1ccc(C2NCCc3cc(OC)c(OC)cc32)cc1 (stereo not given) | > 49.1 µg/mL |
| CC(=O)SC1CC(=O)N(c2ccc(C(C)(C)C)cc2)C1=O (stereo not given) | 5.7 µg/mL (≈ 18.7 µM) |
| Cc1cccc(NC(=O)c2ccc(OCc3c(C)noc3C)cc2)c1C | 3.4 µg/mL (≈ 9.7 µM) |
| Cc1ccc(NC(=O)C2CCCN(C(=O)Nc3ccc(F)cc3)C2)cc1 (stereo not given) | 13.4 µg/mL (≈ 37.7 µM) |
| CCc1ccc(NC(=O)C2C3CCC(O3)C2C(=O)O)cc1 (stereo not given) | 39.3 µg/mL (≈ 136 µM) |
| CC(=O)c1cnc(Nc2cccc(C)c2)s1 | 13.7 µg/mL (≈ 59 µM) |
| COc1ccc(NC(=S)NCc2ccc(F)cc2)cc1 | > 43.6 µg/mL |
| O=C(CC1CCCCC1)NCc1ccc(F)cc1 | 20.7 µg/mL (≈ 83 µM) |
| CCN1CC(CN(C)Cc2nc(-c3ccco3)oc2C)CC1=O (stereo not given) | > 47.6 µg/mL |
| CC(=O)NC(CC(=O)O)C(=O)O (stereo not given) | > 26.3 µg/mL |
| C=CCN1CCN(C(=O)c2cc3c(s2)CCC(CC)C3)CC1 (stereo not given) | 46.3 µg/mL (≈ 145 µM) |
| COc1ccc(S(=O)(=O)Nc2ccc3c(c2)n(C)c(=O)n3C)cc1C | > 54.2 µg/mL |
| CCN(CC)C(=O)C(C)N(C#N)c1nc(Cl)nc(N(C)C)n1 (stereo not given) | > 48.9 µg/mL |
| COc1cc(CCC(=O)OCC(=O)N2CC(=O)Nc3ccccc32)cc(OC)c1OC | > 64.3 µg/mL |
| Cc1cc(NS(=O)(=O)c2ccc(NC(=O)CNS(=O)(=O)c3ccccc3)cc2)nc(C)n1 | 67.3 µg/mL (≈ 142 µM) |
